Experimental data taken from PMC11251182, “Tubular insulin-induced gene 1 deficiency promotes NAD^+ consumption and exacerbates kidney fibrosis” (EMBO Molecular Medicine, 2024).

Target: T1, human recombinant Aldh1a1 (hAldh1a1) (Homo sapiens, UniProt P00352)
T1 construct: recombinant human Aldh1a1 protein (Novoprotein, CF44)
T1 sequence (P00352 2-501): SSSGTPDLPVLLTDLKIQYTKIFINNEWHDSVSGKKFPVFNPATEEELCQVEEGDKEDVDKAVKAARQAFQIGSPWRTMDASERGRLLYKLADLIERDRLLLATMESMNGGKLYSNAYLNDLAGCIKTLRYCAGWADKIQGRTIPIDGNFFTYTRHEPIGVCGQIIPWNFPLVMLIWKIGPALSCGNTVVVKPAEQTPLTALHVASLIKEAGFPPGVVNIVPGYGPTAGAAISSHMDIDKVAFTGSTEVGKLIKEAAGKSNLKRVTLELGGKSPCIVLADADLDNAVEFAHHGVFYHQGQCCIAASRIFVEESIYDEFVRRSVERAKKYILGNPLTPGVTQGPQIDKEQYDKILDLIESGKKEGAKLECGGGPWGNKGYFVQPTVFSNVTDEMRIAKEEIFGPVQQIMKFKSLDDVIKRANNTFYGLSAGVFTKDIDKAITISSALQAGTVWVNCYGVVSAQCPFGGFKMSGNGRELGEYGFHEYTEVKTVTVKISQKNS
Assay: SPR (Biacore T200, CM5 chip, amine coupling); also inhibited the recombinant enzyme's activity at […]
Assay type: binding

Kd: 1980 nM
Compound: COC(=O)C1=C(C)NC(C)=C(C(=O)OCCN(C)Cc2ccccc2)C1c1cccc([N+](=O)[O-])c1 (stereo not shown) [13-F9, nicardipine]
